Tested on: abdominal aortic aneurysm
Assay: rat abdominal aortic aneurysm induction model (catheter inserted in abdominal aorta and ligated, high-fat feed)
Type: in vivo, SD-male rats
Details: for Occurrence not confirmed (abdominal aortic aneurysm) / Occurrence confirmed (abdominal aortic aneurysm): number of rats; for Rupture rate (%) of abdominal aortic aneurysm: rats with observed abdominal aortic aneurysms; for Rupture rate (%) of abdominal aortic aneurysm / Frequency of occurrence (%) (Table 4, Rupture rate of abdominal aortic aneurysm): control group 28.6%; for survival rate (%): Example 2, FIG. 1; for diameter of the aorta in the abdominal aortic aneurysm induction part: Example 2, FIG. 2, control group about 4 mm; for Occurrence not confirmed (Table 4, Rupture rate of abdominal aortic aneurysm): rupture not observed; for Frequency of occurrence (%) (Table 4, Rupture rate of abdominal aortic aneurysm): rupture rate in rats with observed abdominal aortic aneurysms
Method: SD-male rats of 4 weeks old (70 g to 90 g) were used. Eighteen rats and eight rats were prepared as a control group and a medium chain fatty acid administration group, respectively.
Upon arrival, all rats were preliminarily fed normal feed without additional supplements for one week. Then, the medium chain fatty acid administration group was fed normal feed and forcibly administered with high-content neutral fats (decanoic acid occupied 98% of constituent fatty acids) in an amount of 1,145 mg/kg body-weight/day. The control group was fed normal feed and forcibly administered with water in an amount of 1,145 mg/kg body-weight/day.
In this test, the medium chain fatty acid was fed in the form of tricaprin. Tricaprin is a substance in which decanoic acid (C10), a linear saturated fatty acid having 10 carbon atoms, is bonded to glycerol.
From the second week after the arrival, all rats were fed high-fat feed. Then, the medium chain fatty acid administration group was forcibly administered with the high-content neutral fats in an amount of 1,145 mg/kg body-weight/day. Furthermore, the control group was forcibly administered with water in an amount of 1,145 mg/kg body-weight/day.
Three weeks after the arrival, an abdominal aortic aneurysm induction treatment was performed. In the abdominal aortic aneurysm induction treatment, a catheter is inserted in the rat abdominal aorta and the inserted catheter is ligated with the abdominal aorta. The treatment was performed according to the method disclosed in Patent Literature 3.
After that, for the next four weeks, the control group had been fed the high-fat feed and forcibly administered with water in an amount of 1,145 mg/kg body-weight/day. Furthermore, the medium chain fatty acid administration group had been fed the high-fat feed and forcibly administered with the high-content neutral fats. Then, four weeks after the abdominal aortic aneurysm induction treatment, the rats were euthanized and dissected.
Note that the abdominal aortic aneurysm was determined to have occurred if the blood vessel at the site where the abdominal aortic aneurysm induction treatment was performed dilated to twice or more its original thickness.
Next, test results obtained by using tricaprin (an ester of three decanoic acids and glycerol) and tricaprylin (an ester of three octanoic acids of C8 and glycerol) as the medium chain fatty acid is shown. The animal model preparation method is the same as that in Example 1. A group in which tricaprin (C10) was given is referred to as a tricaprin administration group and a group in which tricaprylin (C8) was given is referred to as a tricaprylin administration group.
Twenty-three, eleven, and eighteen model animals were prepared as a control group, the tricaprylin administration group, and the tricaprin administration group, respectively.
The horizontal axis indicates the number of days (day) from Day 0 when the abdominal aortic aneurysm induction treatment was performed, and the vertical axis indicates the survival rate (%). The survival rate declined on Day 17 in the control, while the survival rate remained 100% until Day 26 in the tricaprylin administration group. […] The tricaprin administration group maintained the 100% survival rate during the test period.
Referring to FIG. 2, the horizontal axis indicates which measurements are from the normal blood vessel and which are from the blood vessel at the abdominal aortic aneurysm induction part; the vertical axis indicates the diameter (mm) of the aorta. The normal blood vessel refers to the normal aorta at the upper and lower sides of the part in which the abdominal aortic aneurysm was induced.

[1] = Example 1, number of rats among rats with observed abdominal aortic aneurysms
[2] = Example 2, number of rats among rats with observed abdominal aortic aneurysms
[3] = Example 2, 11 rats tricaprylin group, 18 rats tricaprin group

## CCCCCCCCCC(=O)OCC(COC(=O)CCCCCCCCC)OC(=O)CCCCCCCCC [Tricaprin]
Example 1, 1,145 mg/kg body-weight/day, four weeks after induction treatment, control group 38.9%
  Frequency of occurrence (%) of abdominal aortic aneurysm: 12.5%
[1]
  Rapture confirmed (abdominal aortic aneurysm): 0
  Rapture not confirmed (abdominal aortic aneurysm): 1
Example 1, 8 rats in group, 1,145 mg/kg body-weight/day forcibly administered, four weeks after induction treatment
  Occurrence not confirmed (abdominal aortic aneurysm): 7
Example 1, 8 rats in group, vessel dilated to twice or more its original thickness, 1,145 mg/kg body-weight/day
  Occurrence confirmed (abdominal aortic aneurysm): 1
Example 1, listed as Medium chain fatty acid
  Rupture rate (%) of abdominal aortic aneurysm: 0%
Example 1, listed as medium chain fatty acid
  Rupture rate (%) of abdominal aortic aneurysm: 0.0%
During the test period
  survival rate (%): 100%
  diameter of the aorta in the abdominal aortic aneurysm induction part: about 2.2 mm
Example 2, control group 30.4%
  Frequency of occurrence (%) of abdominal aortic aneurysm: 5.6%
[2]
  Occurrence confirmed (Table 4, Rupture rate of abdominal aortic aneurysm): 0
  Occurrence not confirmed (Table 4, Rupture rate of abdominal aortic aneurysm): 1
[3]
  Occurrence confirmed (abdominal aortic aneurysm): 1
  Occurrence not confirmed (abdominal aortic aneurysm): 17
Example 2
  Frequency of occurrence (%) (Table 4, Rupture rate of abdominal aortic aneurysm): 0%
Example 2, listed as tricaprin
  Frequency of occurrence (%) (Table 4, Rupture rate of abdominal aortic aneurysm): 0.0%

## CCCCCCCC(=O)OCC(COC(=O)CCCCCCC)OC(=O)CCCCCCC [Tricaprylin]
Until Day 26 after induction treatment, control declined on Day 17
  survival rate (%): 100%
  diameter of the aorta in the abdominal aortic aneurysm induction part: about 3.5 mm
Example 2, control group 30.4%
  Frequency of occurrence (%) of abdominal aortic aneurysm: 27.3%
[2]
  Occurrence confirmed (Table 4, Rupture rate of abdominal aortic aneurysm): 1
  Occurrence not confirmed (Table 4, Rupture rate of abdominal aortic aneurysm): 2
[3]
  Occurrence confirmed (abdominal aortic aneurysm): 3
  Occurrence not confirmed (abdominal aortic aneurysm): 8
Example 2
  Frequency of occurrence (%) (Table 4, Rupture rate of abdominal aortic aneurysm): 33.3%

Reference: US20220323385A1, “PHARMACEUTICAL COMPOSITION FOR AORTIC ANEURYSM PROPHYLAXIS AND PROCESSED FOOD” (priority 2019, published 2022)
